Assay results reported in US10111847B2, “Compounds and methods for modulating vascular injury” (The Regents of the University of California, priority 2012, dated 2018).

Legend:
[1] = system: carotid artery; assay: Mouse carotid artery ligation model, neointima formation; assay type: in vivo, FVB Mice; settings: intraperitoneal 100 ng/dose on days 0, 1, 3, 5 and 7; sacrificed at 14 days
Protocol: To examine the potential therapeutic effects of systemic administration of pro-resolving mediators in acute vascular injury, a standardized mouse model of carotid ligation was employed. FVB Mice (N=23) were treated with intraperitoneal administration of RvD2 (100 ng/dose), 7R Mar-1 (100 ng/dose) or vehicle on days 0 (4 hrs prior to carotid injury), 1, 3, 5 and 7. Total dose received was 500 ng/mouse. Unilateral carotid ligation was performed as a standardized model of vascular injury, induced by low shear. Animals were then sacrificed at 14 days and perfusion-fixed vessels explanted for analysis. Following elastin staining, neointima (NI) and medial (M) compartments were measured by a blinded observer, and ratios (area and average wall thickness) calculated. Analysis was performed at mid CCA level (2.5 mm from ligature).
FIG. 22. (A)-(C), depict a cross-section of a carotid artery at mid CCA level (2.5 mm from ligature) from carotid ligation mouse model administered vehicle (A), RvD2 (B), or 7R-Mar-1 (C). (D)-(E) depict NUM ratio of the cross-section of the carotid artery at mid CCA level from carotid ligation mouse model administered vehicle, RvD2, or 7R-Mar-1. […]

[2] = system: rabbit femoral artery; assay: Rabbit femoral artery balloon injury, neointimal hyperplasia at 28 days; assay type: in vivo, New Zealand White Rabbits; settings: 10 nM local; 28 days after injury; vehicle 0.38±0.04; P=0.002
Protocol: All animal experiments are performed under a protocol approved by University of California San Francisco Animal Care Committee. New Zealand White Rabbits (NZWR, Western Oregon Rabbit Company, Philomath, Oreg.) weighing 3 to 5 kg and maintained on a normal chow diet are used in all experiments. Animals are anesthetized for surgical procedures with intramuscular injection of ketamine (25 mg/kg) and xylazine (5 mg/kg), and maintained with inhalation of isoflurane. The balloon injury model is made as described by Conte et al. “Efficient repopulation of denuded rabbit arteries with autologous genetically modified endothelial cells,” Circulation. 1994; 89:2161-2169. Rabbits undergo bilateral external iliac and femoral artery injury with 2F Fogarty balloon catheter (Applied Medical Resources Corp. Rancho Santa Margarita, Calif.). After balloon injury RvD2 (10 nM, Cayman chemical, Ann Arbor, Mich.) is infused to luminal area of the right femoral artery and control vehicle (normal saline with 0.1% ethanol) is infused to the left femoral artery, and then left undisturbed for 20 minutes. For evaluation of acute effects the rabbits are euthanized at 3 days after injury by intravenous overdose of sodium Nembutal. The femoral arteries are harvested and cryosection is made for immunohistochemistry, and total RNA from treated and control tissue is isolated. […]

[3] = system: VSMC; assay: TNF-α-induced superoxide production (DHE) in VSMC (RvD1); assay type: cell-based, human; settings: 10 and 100 nM; TNF-α 10 ng/ml 4 hours
Protocol: RvD1. Cells are seeded and grown on chamber slides at a density of 10,000 cells per chamber for 2 days, followed by treatment with 10 ng/ml TNF-α with or without RvD1 (10 and 100 nM) in serum-free media for 4 hours. After incubation cells are incubated with DHE (5 μmol/L, Invitrogen) in PBS for 30 minutes at 37° C. in a humidified chamber protected from light. DAPI nuclear counter staining is utilized. For frozen section 30-μm-thick sections are incubated with DHE (10 μmol/L) in PBS for 30 minutes at the same condition described above. Fluorescence was detected with TRITC filter allowing the detection of the DHE emission wavelength of 590-620 nm. The fluorescence lamp gain is standardized for all images and analyses. Fluorescence quantitation is performed using ImageJ analysis software (National Institute of Health, Bethesda, Md.). For VSMC the fluorescence intensity is determined for the DHE-stained control cells (no treatment control) from each experimental group and then individual treated cells from the same group are normalized to the corresponding value. For frozen sections the fluorescence intensity is determined for the DHE-stained control vessels (uninjured abdominal aorta) from each experimental group and then individual treated vessels from the same group are normalized to the corresponding value. […]

Compound | neointima formation following carotid artery ligation [1] | neointimal area [2] [mm^2] | TNF-α-induced superoxide production in VSMC [3]
CC/C=C\C[C@H](O)[C@H](O)/C=C/C=C/C=C\C=C\[C@@H](O)C/C=C\CCC(=O)O [RvD2, resolvin D2] | Reduces | 0.27±0.03 | 
CC/C=C\C[C@H](O)/C=C/C=C\C=C\C=C\[C@@H](O)[C@@H](O)C/C=C\CCC(=O)O [RvD1, Resolvin D1] |  |  | significantly reduced
